Reference: US6642353B1, “Peptide ligands for the erythropoietin receptor” (Chugai Seiyaku Kabushiki Kaisha, priority 2000, dated 2003)
Values belong to the molecule of their own block, whether it stands above or below them. Positions of bridges follow the written chain, without caps; N, C: chain ends. No end group written: not given here.

How the values were obtained:
interleukin-6 (IL-6R) = biological target: T1, interleukin-6 (IL-6R) (Homo sapiens, UniProt P08887); experiment: phage binding control, IL-6R extracellular domain; conditions: results not shown
T1 sequence (P08887 20-365 limits assumed): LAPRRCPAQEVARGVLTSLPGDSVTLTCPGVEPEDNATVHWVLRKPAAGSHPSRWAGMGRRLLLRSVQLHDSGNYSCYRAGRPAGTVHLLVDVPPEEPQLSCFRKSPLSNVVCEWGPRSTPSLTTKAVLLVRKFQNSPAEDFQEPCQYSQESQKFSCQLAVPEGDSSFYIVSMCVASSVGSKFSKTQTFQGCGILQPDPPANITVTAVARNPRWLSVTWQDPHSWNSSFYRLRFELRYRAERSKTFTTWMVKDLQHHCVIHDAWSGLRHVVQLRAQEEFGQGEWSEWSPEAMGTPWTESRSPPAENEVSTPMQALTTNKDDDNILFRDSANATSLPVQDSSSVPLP

[1] = tested on: extracellular domains of the receptors for tumor necrosis factor (TNFR); experiment: phage binding control, TNFR extracellular domain; conditions: results not shown
chimeric Ig-EPOR protein [2] = biological target: T2, chimeric Ig-EPOR protein (Homo sapiens, UniProt P19235); experiment: phage ELISA, relative affinities of binding clones for Ig-EPOR; conditions: optical density per phage at 50% ERB1 maximum response × 1×10^8; ERB1 = standard
T2 construct: a fusion protein having domains corresponding to murine IgG1 and the extracellular domain (ECD) of the human EPOR; made in house; secreted into the medium
T2 sequence (P01868 98-324 partner limits assumed, one chain of several): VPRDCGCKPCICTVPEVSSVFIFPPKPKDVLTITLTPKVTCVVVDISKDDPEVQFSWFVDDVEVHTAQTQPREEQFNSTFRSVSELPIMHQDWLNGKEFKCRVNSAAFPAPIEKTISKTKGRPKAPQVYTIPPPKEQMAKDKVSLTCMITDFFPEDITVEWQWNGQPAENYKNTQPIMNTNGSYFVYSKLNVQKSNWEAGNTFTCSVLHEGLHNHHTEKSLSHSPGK
Method: To better characterize the phage isolates having binding specificity for the EPOR, we compared the relative affinities of the binding clones presented in FIG. 4, using a phage ELISA procedure. Phage stocks of the binding clones were titered in triplicate to accurately determine the concentration of pfu/ml for each lysate. Different isolates were then assayed by ELISA using normalized phage concentrations so that all clones were tested using equivalent numbers of phage. Optical densities in the ELISA corresponding to the equivalent of a 50% maximum response in the ERB1 trial were next determined for each of the different phage isolates. […] The normalized relative affinity (“Rel. Aff.”) for each clone is shown to the right of the clone's peptide sequence in FIG. 4.

chimeric Ig-EPOR probe = biological target: T3, chimeric Ig-EPOR probe (Homo sapiens, UniProt P19235); experiment: EPOR-specific magnetic bead phage ELISA; assay type: binding; conditions: anti-M13 detection
T3 construct: a fusion protein having domains corresponding to murine IgG1 and the extracellular domain (ECD) of the human EPOR; made in house; secreted into the medium
T3 sequence (P01868 98-324 partner limits assumed, one chain of several): as above
Method: A magnetic bead ELISA protocol was used to verify that the ERB1 phage clone bound to the chimeric Ig-EPOR probe by specific interactions. The chimeric Ig-EPOR probe was bound to magnetic beads displaying rat anti-murine IgG1, substantially as described above. Samples (100 μl) of 1:2 serial dilutions (PBS and 1% BSA) of a phage lysate were combined with the beads, and the phage allowed to bind the immobilized probe for 1 hr at room temperature. Phage used in this procedure were ERB1 and two negative control phage: HPKF, a clone that binds specifically to a commercially obtained anti-IL-8 mAb, and IL6-B26, a clone that binds specifically to a human IL-6 receptor. After removing unbound phage by washing four times with 200 μl aliquots of TBST (25 mM TrisHCl, pH 7.2, 0.15 M NaCl, 0.1% TWEEN® 20), an HRP-conjugated anti-M13 detection antibody (Pharmacia) diluted 1:5,000 in PBS was added. After incubating (1 hr at room temperature), excess detection antibody was removed by washing and 10 μl for each of the washed bead complexes was transferred to microtiter wells (FALCON® 3912, MICROTEST III, Beckton Dickinson, Oxnard, Calif.) that served as reaction vessels. Each well was developed using the TMB peroxidase substrate and the extent of the peroxidase reaction measured spectrophotometrically, as described in Example 4.

TF-1 cells = experiment: TF-1 cell proliferation assay; assay type: cell-based, human
Method: To evaluate the biological activities of two representative synthetic peptides containing the 12-mer consensus sequence, peptides ERB1-7 and ERB1-8 were tested for their ability to stimulate proliferation of the EPO-responsive cell line (TF-1).
TF-1 cells were propagated in RPMI 1640 containing 10% BCS and 5 ng/ml GM-CSF. […] Also tested as a negative control was an IL-6 peptide having the sequence […] (SEQ ID NO:87). Peptide concentrations were tested over a 1,000-fold concentration range of 0.02 to 20 μM.

[3] = Biacore analysis of binding kinetics of Ig-EPOR; conditions: known affinity values 0.1-1.1×10^−9 k (Karlsson et al.)
Excerpt: Contaminating bands and degradation products on the gel were minimal. […] The Ig-EPOR protein easily was recoverable in microgram amounts using the procedures described above.

chimeric Ig-EPOR protein [4] = biological target: T4, chimeric Ig-EPOR protein (human; murine, UniProt P19235 25-250); experiment: peptide inhibition ELISA (Ig-EPOR binding to EPO-coated plates)
T4 construct: extracellular domain; Secreted from COS-7 cells transfected with pcDNA3-IgG1-EPOR; major species about 59 kDa; also called IgG-EPOR; chimeric receptor; not shown: hinge region, CH2 and CH3 domains of the murine IgG1 heavy chain
T4 sequence (looked up): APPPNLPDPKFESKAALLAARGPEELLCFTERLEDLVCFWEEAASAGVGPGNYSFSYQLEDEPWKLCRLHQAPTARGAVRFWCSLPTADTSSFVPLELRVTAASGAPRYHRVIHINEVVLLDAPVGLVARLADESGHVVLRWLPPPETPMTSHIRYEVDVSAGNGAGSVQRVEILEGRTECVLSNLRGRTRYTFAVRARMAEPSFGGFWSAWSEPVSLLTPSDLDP
Excerpt: (§1) Thus, the consensus 12-mer peptide sequence given by SEQ ID NO:12 likely was necessary but not sufficient to create synthetic peptides having high affinity for the EPOR.

chimeric Ig-EPOR protein [5] = biological target: T4, chimeric Ig-EPOR protein; experiment: control in the peptide inhibition ELISA (FIGS. 6 and 7)
Excerpt: Synthetic peptides having the sequences […]-[…] (SEQ ID NO:81), and […]-[…] (SEQ ID NO:82) were synthesized in the cyclic (disulfide-bonded) form using standard procedures (Peninsula Laboratories, Belmont, Calif.).

chimeric Ig-EPOR protein [6] = biological target: T4, chimeric Ig-EPOR protein; experiment: peptide inhibition ELISA: Ig-EPOR binding to EPO-coated plates
Excerpt: as §1

- binding to extracellular domain of IL-6R (interleukin-6 (IL-6R)): did not bind
- normalized relative affinity (Rel. Aff.) (chimeric Ig-EPOR protein [2]): 1.0
- binding to the Ig-EPOR probe (chimeric Ig-EPOR probe): bound specifically
Molecule: DFDVCRRGWVGHCKDWLSDEYASNPSYPVPHSYYLNPP [ERB1]
- binding to extracellular domain of TNFR [1]: did not bind

- binding result (chimeric Ig-EPOR protein [5]): no binding
B2: IL-6 peptide (peptide)
peptide: GGAFCEAVGCGPDRNFYGG
notes: also called irrelevant IL-6 peptide

- binding result (chimeric Ig-EPOR protein [4]): no binding
B3: 15-mer peptide 7N-3 (peptide)
peptide: GCRRGWVGQCKAWFN
modifications: not fully specified (bridges); also: synthesized as (cyclic form there)
notes: N-terminal truncation of ERB1-7

- IC50 (chimeric Ig-EPOR protein [6]): ~3.7 µM
B4: 16-mer peptide 7N-2 (peptide)
peptide: EGCRRGWVGQCKAWFN
modifications: disulfide 3-11 (inferred)
notes: as for B3

Second part, the molecule before the results:

Molecule: EPO: recombinant human EPO (R & D Systems)
- half maximal response (ED50), TF-1 proliferation (TF-1 cells; three days culture): 0.05 to 0.1 unit/ml

Molecule: GGAFCEAVGCGPDRNFYGG [IL-6 peptide, reference compound]
- stimulation of TF-1 cell proliferation (TF-1 cells; any tested concentration up to 20 μM): did not stimulate TF-1 cell proliferation

Molecule: Ig-EPOR: chimeric protein: ligand binding domain of human EPOR and hinge, CH2 and CH3 domains of murine IgG1
- binding kinetics [3]: in good agreement with known affinity values

B1: 14-mer peptide 7N-4 (peptide)
peptide: CRRGWVGQCKAWFN
modifications: not fully specified (bridges); also: synthesized as (cyclic form there)
notes: as for B3
- binding result (chimeric Ig-EPOR protein [4]): no binding
